According to patent US20180099931A1 (AbbVie S.à.r.l., priority 2016, published 2018):
Read-outs that look alike come from different tables or passages of the source.

Target: T1, F508delCFTR (Homo sapiens, UniProt P13569, DEL508-508)
T1 construct: expressed in transfected cells; host or cells: CFBE41o- human lung-derived epithelial cells (CFBE4lo-F508delCFTR-HRP), doxycycline-inducible
Test: Cell Surface Expression-Horse Radish Peroxidase (CSE-HRP) Assay;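 for Maximum % activity (with co-corrector): co-corrector and positive control are both the same reference corrector at 2 µM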;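 for Maximum % activity (without co-corrector): percent of the 2 µM on-plate positive control corrector response above DMSO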
Assay type: cell-based
Settings: CSE-HRP; for Maximum % activity (with co-corrector): with co-corrector (2 μM); for Maximum % activity (with co-corrector) / Emax: maximum at any tested concentration, normalized to on-plate positive control; for Emax: without co-corrector, read-out: Maximum % activity (without co-corrector)

[1] = test compound without co-corrector, read-out: EC50 (without co-corrector)
[2] = with co-corrector (2 μM of 3-[(2R,4R)-4-({[1-(2,2-difluoro-1,3-benzodioxol-5-yl)cyclopropyl]carbonyl}amino)-7-methoxy-3,4-dihydro-2H-chromen-2-yl]benzoic acid), read-out: EC50 (with co-corrector)

T1 sequence (P13569 with tags, fused parts or gaps DEL508-508): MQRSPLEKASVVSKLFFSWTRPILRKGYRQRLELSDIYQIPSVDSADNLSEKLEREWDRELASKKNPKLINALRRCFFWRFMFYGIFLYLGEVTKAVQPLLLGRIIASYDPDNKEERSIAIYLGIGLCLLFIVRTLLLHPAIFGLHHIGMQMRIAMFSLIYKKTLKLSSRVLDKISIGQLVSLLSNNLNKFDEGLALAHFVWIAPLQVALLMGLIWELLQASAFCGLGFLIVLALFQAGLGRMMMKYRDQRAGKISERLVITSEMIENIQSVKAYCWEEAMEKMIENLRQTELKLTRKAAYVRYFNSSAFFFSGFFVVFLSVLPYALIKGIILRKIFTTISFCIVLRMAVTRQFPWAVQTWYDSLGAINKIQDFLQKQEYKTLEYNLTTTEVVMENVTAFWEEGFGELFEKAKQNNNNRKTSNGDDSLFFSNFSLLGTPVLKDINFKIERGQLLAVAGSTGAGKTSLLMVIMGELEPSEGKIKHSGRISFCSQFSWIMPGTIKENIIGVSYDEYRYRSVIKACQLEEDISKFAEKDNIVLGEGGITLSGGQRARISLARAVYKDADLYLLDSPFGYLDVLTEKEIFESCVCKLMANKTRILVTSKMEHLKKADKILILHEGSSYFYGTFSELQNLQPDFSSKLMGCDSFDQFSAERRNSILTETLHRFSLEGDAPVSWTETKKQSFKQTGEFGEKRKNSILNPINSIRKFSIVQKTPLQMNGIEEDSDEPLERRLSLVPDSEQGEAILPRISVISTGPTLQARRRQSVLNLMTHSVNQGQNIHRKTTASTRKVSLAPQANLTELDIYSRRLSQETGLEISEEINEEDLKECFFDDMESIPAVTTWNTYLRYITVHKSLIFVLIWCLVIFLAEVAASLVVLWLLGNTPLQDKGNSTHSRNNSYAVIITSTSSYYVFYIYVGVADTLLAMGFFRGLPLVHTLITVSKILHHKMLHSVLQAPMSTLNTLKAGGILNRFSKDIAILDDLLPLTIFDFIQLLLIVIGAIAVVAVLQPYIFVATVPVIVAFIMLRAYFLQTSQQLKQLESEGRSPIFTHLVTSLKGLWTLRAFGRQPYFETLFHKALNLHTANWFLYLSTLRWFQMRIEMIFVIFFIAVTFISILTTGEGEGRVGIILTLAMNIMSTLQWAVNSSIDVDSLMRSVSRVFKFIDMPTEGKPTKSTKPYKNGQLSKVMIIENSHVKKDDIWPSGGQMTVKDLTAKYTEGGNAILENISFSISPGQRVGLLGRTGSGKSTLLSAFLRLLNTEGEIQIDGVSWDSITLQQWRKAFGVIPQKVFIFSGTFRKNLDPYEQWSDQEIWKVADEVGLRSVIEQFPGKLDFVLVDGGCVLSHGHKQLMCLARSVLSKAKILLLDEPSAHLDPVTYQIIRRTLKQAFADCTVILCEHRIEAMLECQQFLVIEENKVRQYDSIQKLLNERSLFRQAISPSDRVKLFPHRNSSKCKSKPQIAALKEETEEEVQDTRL

Structure (SMILES) | EC50 [1] [µM] | EC50 [2] [µM] | Maximum % activity (with co-corrector) | Emax [%]
COc1ccc(C(C)(C)C)cc1CN[C@H]1[C@H](C(C)(C)C)[C@@H](C(=O)O)N(C(=O)CC2(O)CCCCC2)[C@H]1c1ccccc1 [II-210] | 1 to 10 | 1 to 10 | +++ (≥350) | > 200
COc1ccc(C(C)(C)C)cc1CN[C@H]1[C@H](C(C)(C)C)[C@@H](C(=O)O)N(C(=O)C2CC3C=CC2C3)[C@H]1c1ccccc1 (some centres unmarked) [II-211] | 1 to 10 | 1 to 10 | +++ (≥350) | > 200
COc1ccc(C(C)(C)C)cc1CN[C@H]1[C@H](C(C)(C)C)[C@@H](C(=O)O)N(C(=O)CC2C=CCCC2)[C@H]1c1ccccc1 (some centres unmarked) [II-212] | 1 to 10 | 1 to 10 | +++ (≥350) | > 200
COc1ccc(C(C)(C)C)cc1CN[C@H]1[C@H](C(C)(C)C)[C@@H](C(=O)O)N(C(=O)CC2CCOc3ccccc32)[C@H]1c1ccccc1 (some centres unmarked) [II-213] | 1 to 10 | 1 to 10 | +++ (≥350) | 100 to 200
COc1ccc(C(C)(C)C)cc1CN[C@H]1[C@H](C(C)(C)C)[C@@H](C(=O)O)N(C(=O)C2CCC(OC)CC2)[C@H]1c1ccccc1 (some centres unmarked) [II-214] | 1 to 10 | 1 to 10 | +++ (≥350) | > 200
COc1ccc(C(C)(C)C)cc1CN[C@H]1[C@H](C(C)(C)C)[C@@H](C(=O)O)N(C(=O)C(C)c2ccccc2)[C@H]1c1ccccc1 (some centres unmarked) [II-215] | 1 to 10 | < 1 | +++ (≥350) | > 200
COc1ccc(C(C)(C)C)cc1CN[C@H]1[C@H](C(C)(C)C)[C@@H](C(=O)O)N(C(=O)C2COC(C(C)C)OC2)[C@H]1c1ccccc1 (some centres unmarked) [II-216] | 1 to 10 | 1 to 10 | +++ (≥350) | 100 to 200
COc1ccc(C(C)(C)C)cc1CN[C@H]1[C@H](C(C)(C)C)[C@@H](C(=O)O)N(C(=O)CC2CC(=O)c3ccccc32)[C@H]1c1ccccc1 (some centres unmarked) [II-217] | 1 to 10 | < 1 | +++ (≥350) | > 200
COc1ccc(C(C)(C)C)cc1CN[C@H]1[C@H](C(C)(C)C)[C@@H](C(=O)O)N(C(=O)CC2CCC(F)(F)C2)[C@H]1c1ccccc1 (some centres unmarked) [II-218] | 1 to 10 | 1 to 10 | +++ (≥350) | 100 to 200
COc1ccc(C(C)(C)C)cc1CN[C@H]1[C@H](C(C)(C)C)[C@@H](C(=O)O)N(C(=O)CC2CCCC2(F)F)[C@H]1c1ccccc1 (some centres unmarked) [II-219] | 1 to 10 | < 1 | +++ (≥350) | > 200
COc1ccc(C(C)(C)C)cc1CN[C@H]1[C@H](C(C)(C)C)[C@@H](C(=O)O)N(C(=O)CC2(C)CCC(F)(F)C2)[C@H]1c1ccccc1 (some centres unmarked) [II-220] | 1 to 10 | 1 to 10 | +++ (≥350) | 100 to 200
COc1ccc(C(C)(C)C)cc1CN[C@H]1[C@H](C(C)(C)C)[C@@H](C(=O)O)N(C(=O)Cc2nn(C)c(=O)c3ccccc23)[C@H]1c1ccccc1 [II-221] | 1 to 10 | 1 to 10 | +++ (≥350) | 100 to 200
COc1ccc(C(C)(C)C)cc1CN[C@H]1[C@H](C(C)(C)C)[C@@H](C(=O)O)N(C(=O)c2cccc3c2OCC3)[C@H]1c1ccccc1 [II-222] | 1 to 10 | < 1 | +++ (≥350) | 100 to 200
COc1ccc(C(C)(C)C)cc1CN[C@H]1[C@H](C(C)(C)C)[C@@H](C(=O)O)N(C(=O)c2cc(Cl)c(=O)n(C(C)C)c2)[C@H]1c1ccccc1 [II-223] | 1 to 10 | 1 to 10 | +++ (≥350) | < 100
COc1ccc(C(C)(C)C)cc1CN[C@H]1[C@H](C(C)(C)C)[C@@H](C(=O)O)N(C(=O)c2ccc(Oc3ccccn3)cc2)[C@H]1c1ccccc1 [II-224] | 1 to 10 | < 1 | +++ (≥350) | > 200
COc1ccc(C(C)(C)C)cc1CN[C@H]1[C@H](C(C)(C)C)[C@@H](C(=O)O)N(C(=O)c2cccc(Cn3cncn3)c2)[C@H]1c1ccccc1 [II-225] | 1 to 10 | 1 to 10 | +++ (≥350) | 100 to 200
COc1ccc(C(C)(C)C)cc1CN[C@H]1[C@H](C(C)(C)C)[C@@H](C(=O)O)N(C(=O)c2cc(-c3ccccc3)nn2C)[C@H]1c1ccccc1 [II-226] | < 1 | < 1 | +++ (≥350) | 100 to 200
COc1ccc(C(C)(C)C)cc1CN[C@H]1[C@H](C(C)(C)C)[C@@H](C(=O)O)N(C(=O)c2cc(-c3ccccc3)n(C)n2)[C@H]1c1ccccc1 [II-227] | 1 to 10 | < 1 | +++ (≥350) | > 200
COc1ccc(C(C)(C)C)cc1CN[C@H]1[C@H](C(C)(C)C)[C@@H](C(=O)O)N(C(=O)c2cnn(-c3ccccc3C)c2C)[C@H]1c1ccccc1 [II-228] | < 1 | < 1 | +++ (≥350) | > 200
COc1ccc(C(C)(C)C)cc1CN[C@H]1[C@H](C(C)(C)C)[C@@H](C(=O)O)N(C(=O)c2c(C)nn(-c3ccccc3)c2C)[C@H]1c1ccccc1 [II-229] | 1 to 10 | 1 to 10 | +++ (≥350) | > 200
COc1ccc(C(C)(C)C)cc1CN[C@H]1[C@H](C(C)(C)C)[C@@H](C(=O)O)N(C(=O)c2ccc3c(c2)OCCCO3)[C@H]1c1ccccc1 [II-230] | 1 to 10 | 1 to 10 | +++ (≥350) | 100 to 200
COc1ccc(C(C)(C)C)cc1CN[C@H]1[C@H](C(C)(C)C)[C@@H](C(=O)O)N(C(=O)c2onc3ccccc23)[C@H]1c1ccccc1 [II-231] | < 1 | < 1 | +++ (≥350) | 100 to 200
COc1ccc(C(C)(C)C)cc1CN[C@H]1[C@H](C(C)(C)C)[C@@H](C(=O)O)N(C(=O)C2COc3ccccc3C2)[C@H]1c1ccccc1 (some centres unmarked) [II-232] | 1 to 10 | < 1 | +++ (≥350) | 100 to 200
COc1ccc(C(C)(C)C)cc1CN[C@H]1[C@H](C(C)(C)C)[C@@H](C(=O)O)N(C(=O)Cc2cccc(F)c2F)[C@H]1c1ccccc1 [II-233] | 1 to 10 | < 1 | +++ (≥350) | > 200
COc1ccc(C(C)(C)C)cc1CN[C@H]1[C@H](C(C)(C)C)[C@@H](C(=O)O)N(C(=O)CC2=CCCC2)[C@H]1c1ccccc1 [II-234] | 1 to 10 | 1 to 10 | +++ (≥350) | > 200
COc1ccc(C(C)(C)C)cc1CN[C@H]1[C@H](C(C)(C)C)[C@@H](C(=O)O)N(C(=O)CC2CCCO2)[C@H]1c1ccccc1 (some centres unmarked) [II-235] | 1 to 10 | 1 to 10 | +++ (≥350) | > 200
